Laboratory results from ChEMBL document CHEMBL5518192, “Targeting aromatase to restrain oestrogen production and developing efficacious interventions against ER-positive cancer” (Eur J Med Chem, 2024).
Values belong to the compound of their own block, whether it stands above or below them.

How the values were obtained:
MDA-MB-231 = experiment: Growth inhibition of estrogen receptor negative human MDA-MB-231 cells at 10 uM incubated for 48 hrs by SRB assay relative to control; type: functional; settings: read-out: GI
MDA-MB-468 = experiment: Growth inhibition of estrogen receptor negative human MDA-MB-468 cells at 10 uM incubated for 48 hrs by SRB assay relative to control; type: functional; settings: read-out: GI
Aromatase [1] = target: T1, Aromatase (Homo sapiens, UniProt P11511); experiment: Binding affinity to human aromatase assessed as hyperchromic shift by measuring increase in absorbance intensity at 5 uM by UV-Vis spectral analysis
T1 sequence (P11511 whole entry): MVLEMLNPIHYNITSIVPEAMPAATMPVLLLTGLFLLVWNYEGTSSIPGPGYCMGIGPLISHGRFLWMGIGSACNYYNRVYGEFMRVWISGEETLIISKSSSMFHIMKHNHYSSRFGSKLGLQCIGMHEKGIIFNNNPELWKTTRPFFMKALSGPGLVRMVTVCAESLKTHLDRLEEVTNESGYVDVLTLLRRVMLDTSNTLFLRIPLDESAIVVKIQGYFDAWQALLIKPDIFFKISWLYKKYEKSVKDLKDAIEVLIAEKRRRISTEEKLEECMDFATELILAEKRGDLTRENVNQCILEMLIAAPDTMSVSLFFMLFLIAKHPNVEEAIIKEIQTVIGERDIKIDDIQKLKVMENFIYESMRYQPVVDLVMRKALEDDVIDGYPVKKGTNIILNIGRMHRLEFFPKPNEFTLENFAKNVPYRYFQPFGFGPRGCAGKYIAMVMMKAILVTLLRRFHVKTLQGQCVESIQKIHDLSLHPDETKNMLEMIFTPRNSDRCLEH

Aromatase [2] = target: T1, Aromatase; experiment: Binding affinity to human aromatase assessed as binding constant by Benesi-Hildebrand equation based analysis
Aromatase [3] = target: T1, Aromatase; experiment: Binding affinity to human aromatase assessed as inhibition constant by Cheng-Prosuff equation based analysis
Aromatase [4] = target: T1, Aromatase; experiment: Binding affinity to human aromatase assessed as change in free energy
Albumin [5] = target: T2, Albumin (Homo sapiens, UniProt P02768); experiment: Binding affinity to human serum albumin assessed as binding constant by spectrophotometer; type: ADME; settings: isolated protein
T2 sequence (P02768 whole entry): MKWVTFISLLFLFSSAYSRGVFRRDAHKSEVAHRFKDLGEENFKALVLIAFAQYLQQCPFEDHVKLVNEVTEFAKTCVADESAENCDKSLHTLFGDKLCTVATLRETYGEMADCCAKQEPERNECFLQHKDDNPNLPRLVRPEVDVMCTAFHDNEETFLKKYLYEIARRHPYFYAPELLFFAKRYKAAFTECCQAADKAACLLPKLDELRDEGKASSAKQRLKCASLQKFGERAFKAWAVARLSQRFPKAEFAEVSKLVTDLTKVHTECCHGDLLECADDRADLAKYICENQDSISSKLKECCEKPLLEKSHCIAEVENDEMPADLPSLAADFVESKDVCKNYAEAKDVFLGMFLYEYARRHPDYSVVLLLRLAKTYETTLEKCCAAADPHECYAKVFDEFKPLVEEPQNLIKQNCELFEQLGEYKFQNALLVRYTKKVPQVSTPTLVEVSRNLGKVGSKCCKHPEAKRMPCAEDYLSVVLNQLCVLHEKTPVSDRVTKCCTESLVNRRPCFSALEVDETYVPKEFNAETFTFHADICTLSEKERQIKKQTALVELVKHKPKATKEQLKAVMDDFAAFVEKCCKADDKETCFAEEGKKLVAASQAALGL

Albumin [6] = target: T2, Albumin; experiment: Binding affinity to human serum albumin phosphate buffer at pH 7.4 assessed as conformational change in HSA by measuring increase in absorbance at 20 uM by UV-Vis absorption spectrum based analysis; type: ADME; settings: isolated protein, pH 7.4, 20 µM
Aromatase [7] = target: T1, Aromatase; experiment: Competitive inhibition of human aromatase using varying concentrations of androstenedione as substrate assessed as […] in Km with constant Vmax at 10 uM by Lineweaver-Burk equation based analysis
Aromatase [8] = target: T1, Aromatase
Description: Inhibition of human aromatase preincubated for 10 mins followed by NADP+/fluorogenic substrate mixture addition and measured for 60 mins by fluorimetric assay

MCF7 = experiment: cells; settings: Homo sapiens, MCF7, 48 h, read-out: GI
T47D = experiment: cells; settings: Homo sapiens, 48 h, read-out: GI
Hs-578T = experiment: cells; settings: Homo sapiens, 48 h, read-out: GI
in vitro = settings: human, plasma
Description: Stability in human plasma assessed drug degradation at 50 uM measured after 120 mins by spectrometer

physchem = settings: octanol/water
Description: Octanol/water partition coefficient, log P of the compound

BT-549 = experiment: cells; settings: Homo sapiens, BT-549, 48 h, read-out: GI

SMILES: CCOC(=O)C(=O)c1cn(CCCCCNc2ccc(C(=C(C)c3ccccc3)c3ccccc3)cc2)c2ccccc12
inhibition of growth at 10 µM (MDA-MB-231): 18.2%
inhibition of growth at 10 µM (MDA-MB-468): 24.3%
Activity (Aromatase [1]): Active
Ka (Aromatase [2]): 5.5 10^4/M
Ki (Aromatase [3]): 26 nM
deltaG (Aromatase [4]): -6.72 kcal/mol
Ka (Albumin [5]): 2.8 10^4/M
Activity (Albumin [6]): Active
inhibition (INH) (Aromatase [7]): Active
IC50 (Aromatase [8]): 54 nM
inhibition of growth at 10 µM (MCF7): 8.48%
inhibition of growth at 10 µM (T47D): 30.1%
inhibition of growth at 10 µM (Hs-578T): 6.04%
metabolised at 2 h, 50 µM (in vitro): 15.5%
logP (physchem): 4.81

SMILES: C/C(=C(\c1ccccc1)c1ccc(NCCCCCn2cc(C(=O)C(=O)O)c3ccccc32)cc1)c1cccc(Br)c1
IC50 (Aromatase [8]): 800 nM
logP (physchem): 5.33

SMILES: COc1ccccc1/C(C)=C(/c1ccccc1)c1ccc(NCCCCCn2cc(C(=O)C(=O)O)c3ccccc32)cc1
IC50 (Aromatase [8]): 12300 nM
logP (physchem): 4.46

IC50 (Aromatase [8]): 650 nM
logP (physchem): 4.46
SMILES: CCOC(=O)C(=O)c1cn(CCCNc2ccc(C(=C(C)c3ccccc3)c3ccccc3)cc2)c2ccccc12
inhibition of growth at 10 µM (MDA-MB-231): 13.6%
inhibition of growth at 10 µM (MCF7): 10.9%
inhibition of growth at 10 µM (T47D): 41%

SMILES: CC(=C(c1ccccc1)c1ccc(NCCCCCn2cc(C(=O)C(=O)O)c3ccccc32)cc1)c1ccccc1
inhibition of growth at 10 µM (MDA-MB-468): 7.71%
IC50 (Aromatase [8]): 3170 nM
inhibition of growth at 10 µM (T47D): 13%
inhibition of growth at 10 µM (Hs-578T): 12.4%
logP (physchem): 4.97

SMILES: CCOC(=O)C(=O)c1cn(CCCCCNc2ccc(/C(=C(/C)c3ccccc3OC)c3ccccc3)cc2)c2ccccc12
IC50 (Aromatase [8]): 133 nM
logP (physchem): 4.31

SMILES: COc1ccccc1/C(C)=C(/c1ccccc1)c1ccc(NCCCCn2cc(C(=O)C(=O)O)c3ccccc32)cc1
IC50 (Aromatase [8]): 550 nM
logP (physchem): 4.29

IC50 (Aromatase [8]): 178 nM
logP (physchem): 4.61
SMILES: CC(=C(c1ccccc1)c1ccc(NCCCn2cc(C(=O)C(=O)O)c3ccccc32)cc1)c1ccccc1
inhibition of growth at 10 µM (Hs-578T): 14.1%
inhibition of growth at 10 µM (BT-549): 14.8%

SMILES: CCOC(=O)C(=O)c1cn(CCCCNc2ccc(/C(=C(/C)c3ccccc3OC)c3ccccc3)cc2)c2ccccc12
IC50 (Aromatase [8]): 3200 nM
logP (physchem): 4.13

Activity (Albumin [6]): Active
SMILES: CCOC(=O)C(=O)Nc1ccc(/C(=C(/C)c2ccc(Cl)cc2)c2ccccc2)cc1

SMILES: C/C(=C(\c1ccccc1)c1ccc(NCCCCn2cc(C(=O)C(=O)O)c3ccccc32)cc1)c1cccc(Br)c1
IC50 (Aromatase [8]): 6800 nM
logP (physchem): 5.15

SMILES: CCOC(=O)C(=O)c1cn(CCCCCCNc2ccc(C(=C(C)c3ccccc3)c3ccccc3)cc2)c2ccccc12
IC50 (Aromatase [8]): 1940 nM
logP (physchem): 4.98

SMILES: CCOC(=O)C(=O)c1cn(CCCCNc2ccc(/C(=C(/C)c3cccc(Br)c3)c3ccccc3)cc2)c2ccccc12
IC50 (Aromatase [8]): 3860 nM
logP (physchem): 4.99

IC50 (Aromatase [8]): 1390 nM
logP (physchem): 4.28
SMILES: CCOC(=O)C(=O)c1cn(CCNc2ccc(C(=C(C)c3ccccc3)c3ccccc3)cc2)c2ccccc12

IC50 (Aromatase [8]): 9730 nM
logP (physchem): 4.43
SMILES: CC(=C(c1ccccc1)c1ccc(NCCn2cc(C(=O)C(=O)O)c3ccccc32)cc1)c1ccccc1
inhibition of growth at 10 µM (MDA-MB-231): 13.3%
inhibition of growth at 10 µM (MDA-MB-468): 55.1%
inhibition of growth at 10 µM (MCF7): 47.3%
inhibition of growth at 10 µM (T47D): 38.9%
inhibition of growth at 10 µM (Hs-578T): 46.4%
inhibition of growth at 10 µM (BT-549): 32.5%

SMILES: CC(=C(c1ccccc1)c1ccc(NCCCCCCn2cc(C(=O)C(=O)O)c3ccccc32)cc1)c1ccccc1
logP (physchem): 5.15

SMILES: CCOC(=O)C(=O)c1cn(CCCCCNc2ccc(/C(=C(/C)c3cccc(Br)c3)c3ccccc3)cc2)c2ccccc12
IC50 (Aromatase [8]): 790 nM
logP (physchem): 5.16

SMILES: CC(=C(c1ccccc1)c1ccc(NCCCCn2cc(C(=O)C(=O)O)c3ccccc32)cc1)c1ccccc1
inhibition of growth at 10 µM (MDA-MB-468): 12.9%
IC50 (Aromatase [8]): 1370 nM
inhibition of growth at 10 µM (MCF7): 14.3%
inhibition of growth at 10 µM (T47D): 13.7%
inhibition of growth at 10 µM (Hs-578T): 60.2%
inhibition of growth at 10 µM (BT-549): 40.2%
logP (physchem): 4.79

SMILES: CCOC(=O)C(=O)c1cn(CCCCNc2ccc(C(=C(C)c3ccccc3)c3ccccc3)cc2)c2ccccc12
IC50 (Aromatase [8]): 500 nM
inhibition of growth at 10 µM (T47D): 5.76%
logP (physchem): 4.63

Activity (Albumin [6]): Active
SMILES: CCOC(=O)C(=O)Nc1ccc(/C(=C(/C)c2ccc(OC)cc2)c2ccccc2)cc1

logP (physchem): 2.29
SMILES: N#Cc1ccc(C(c2ccc(C#N)cc2)n2cncn2)cc1 [LETROZOLE]

SMILES: CC/C(=C(\c1ccccc1)c1ccc(OCCN(C)C)cc1)c1ccccc1 [TAMOXIFEN]
inhibition of growth at 10 µM (MDA-MB-231): 54.8%
inhibition of growth at 10 µM (MDA-MB-468): -13.3%
inhibition of growth at 10 µM (MCF7): -10.3%
inhibition of growth at 10 µM (Hs-578T): 39.5%
inhibition of growth at 10 µM (BT-549): 30.2%
